Assay results reported in patent US20220073532A1, “INHIBITORS OF CGAS ACTIVITY AS THERAPEUTIC AGENTS” (BELLBROOK LABS, LLC, priority 2019, published 2022).
Like-named read-outs stand apart in the source and are kept apart here.

Experiments:
[1] = Human microsomal stability (NADPH); type: in vitro ADME; conditions: liver microsomes, read-out: Human MS Stability (NADPH) t1/2
Protocol: ADME/PK: Compounds are tested in Caco-2 and MDR1-MDCK permeability assays to provide a measure of intestinal absorption, blood-brain-permeability and efflux by P-glycoprotein (P-gp), a frequent obstacle to effective CNS delivery. CNS drugs are associated with high passive membrane permeability (Papp>1×10^−6 cm/sec) and have low efflux ratios (Papp(B-A)/Papp(A-B)<2.5). Metabolic stability is tested using mouse and human liver microsomes incubated with NADPH for CYP-dependent metabolism and with UDPGA for glucuronidation. Compounds are tested for pharmacokinetics and brain penetration in mice using oral, intravenous and intraperitoneal administration.

[2] = system: Kinase, PDE, GTPase, ENPP1 (Abl1, PKA, TBK1, Rac1, PDE4A, ENPP1); assay: Selectivity panel of nucleotide-utilizing enzymes; type: biochemical
Protocol: Selectivity profiling: A panel of nucleotide-utilizing enzymes that included kinases (Abl1, PKA, TBK1—which transduces cGAS/STING signals, see FIG. 5A) a GTPase (Rac1), a phosphodiesterase (PDE4A), and ENPP1, a nucleotidase that degrades cGAMP, was used preliminarily. cGAS assays were used to perform dose response measurements with cGAS inhibitors. In addition to these enzymes, inhibitors are tested with three other members of the oligoadenylate synthases (OAS), nucleic acid sensors that activate innate immunity via production of short, 2′-5′ oligoadenylate second messengers. Methods for expression and purification of the human and/or porcine enzymes in E. coli or baculovirus-infected insect cells have been developed as well as a simple, absorbance-based assay using commercially available pyrophosphate kit. In addition, an FP-based assay (competitive displacement of a fluor-cGAMP tracer) is developed to test compounds as ligands for STING (which could be one explanation for the partial activity of Compound 15 in cells stimulated with cGAMP) (FIG. 5).

[3] = system: IRF3-driven Luc expression in THP-1 Dual cells; assay: THP-1 Dual IRF3-Luc reporter assay; type: cell-based, human
Protocol: IFN induction in human monocyte cell lines: The human monocyte cell line THP-1 gives a robust cGAS/STING-dependent type I IFN response and has been used extensively for studies on the pathway. Typically, cells are stimulated by transfection with dsDNA and gene expression is assessed using an ELISA for IFNβ, a reporter gene assay, and/or cGAS/STING pathway markers such as STING phosphorylation. These assays were validated using the TBK1 inhibitor, BX-795, which acts downstream of cGAS/STING, as a probe; THP-1 Dual cells (Invivogen, San Diego) are used as the reporter cell line for routine compound testing (FIG. 5A). These assays were optimized, including equalizing responses with transfected DNA and cGAMP and comparing responses between undifferentiated cells and cells that have been differentiated to macrophages (which show little difference). […] Stimulation of THP-1 Dual cells with damage-associated molecular pattern molecules (DAMPs) that act through pattern recognition receptors other than cGAS provides another way to confirm the specificity of putative cGAS inhibitors.

cGAS = cGAS (Homo sapiens, UniProt Q8N884); assay: cGAS enzymatic assay (FP/TR-FRET detection of cGAMP); type: biochemical; parameters: The cGAS assay was used to screen 100,000 compounds with full-length human cGAS; 6xHis; made in house
Method in brief: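 Homogeneous enzymatic assay with FP and TR-FRET read-outs, full-length enzyme at 30 nM. IC50 from dose-response under basal conditions (5 mM MgCl2, 100 μM ATP/GTP), also with 0.2 mM Mn added; values reported as letter bins from A (<100 nM) to E (>10 μM).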

Mouse cGAS = Mouse cGAS (Mus musculus, UniProt Q8C6L5); assay: cGAS enzymatic assay with mouse cGAS; type: biochemical
Protocol: Biochemical and biophysical analysis: Potency and MOA studies, including Mn^2+ sensitivity, are performed using the cGAS enzymatic assay. Dose response experiments are used to determine IC50 values under basal conditions (5 mM MgCl2, 100 μM ATP/GTP), and with the addition of physiological levels of Mn (0.2 mM) using human and mouse cGAS. Ligand optimization is driven by potency with the human enzyme; potency with mouse cGAS informs selection of an appropriate disease model for efficacy studies. Competition with ATP and GTP is assessed by comparing basal IC50 values to those in the presence of saturating ATP or GTP, and subsequently confirmed by measuring velocity vs. substrate at varying ATP or GTP levels. Inhibitor residence times (1/koff) are used as a key parameter for prioritizing compounds and driving SAR, because a longer residence time often results from an allosteric mechanism, and can also correlate with improved cellular activity. The cGAS enzymatic assay is used with the jump dilution method to measure residence times (inhibitor dissociation rates), as described for kinases using the very similar ADP assay. Biophysical methods, including SPR and TSA, are used as orthologous methods for residence time measurements and kd estimates.

Chain of cGAS (Q8N884 whole entry): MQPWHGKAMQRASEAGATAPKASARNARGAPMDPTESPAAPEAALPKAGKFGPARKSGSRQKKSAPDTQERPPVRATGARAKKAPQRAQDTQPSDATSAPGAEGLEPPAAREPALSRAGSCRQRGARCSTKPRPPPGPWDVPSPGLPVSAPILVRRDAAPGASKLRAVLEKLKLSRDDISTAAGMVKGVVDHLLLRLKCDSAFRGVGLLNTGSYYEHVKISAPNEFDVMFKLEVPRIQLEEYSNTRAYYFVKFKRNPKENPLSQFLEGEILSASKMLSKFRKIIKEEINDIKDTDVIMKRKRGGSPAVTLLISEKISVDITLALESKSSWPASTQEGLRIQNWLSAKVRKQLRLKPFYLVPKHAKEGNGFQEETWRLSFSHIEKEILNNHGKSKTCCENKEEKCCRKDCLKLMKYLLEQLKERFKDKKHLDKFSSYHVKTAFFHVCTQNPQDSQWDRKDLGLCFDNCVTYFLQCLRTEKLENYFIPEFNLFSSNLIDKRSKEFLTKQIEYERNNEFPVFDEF
Chain of Mouse cGAS (Q8C6L5 whole entry): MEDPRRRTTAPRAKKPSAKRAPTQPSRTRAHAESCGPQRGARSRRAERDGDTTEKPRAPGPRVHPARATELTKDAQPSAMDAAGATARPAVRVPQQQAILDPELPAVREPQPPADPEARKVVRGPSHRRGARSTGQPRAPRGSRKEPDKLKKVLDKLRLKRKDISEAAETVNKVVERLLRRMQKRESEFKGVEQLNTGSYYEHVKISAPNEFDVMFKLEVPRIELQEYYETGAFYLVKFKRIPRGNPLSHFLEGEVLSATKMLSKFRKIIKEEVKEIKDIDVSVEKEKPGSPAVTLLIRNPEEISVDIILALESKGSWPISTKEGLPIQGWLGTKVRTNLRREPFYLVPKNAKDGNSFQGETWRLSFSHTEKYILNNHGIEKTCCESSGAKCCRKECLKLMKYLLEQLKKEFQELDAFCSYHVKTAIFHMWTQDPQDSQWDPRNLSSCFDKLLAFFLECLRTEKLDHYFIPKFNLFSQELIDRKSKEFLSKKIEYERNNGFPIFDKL

half-life [1]: > 2 h
Off-Target Activity (Kinase, PDE, GTPase, ENPP1) [2]: None
inhibitory activity with a panel of nucleotide-utilizing enzymes ([2]; at 200 μM): lack of inhibitory activity
IC50 (cGAS; 5 mM Mg^2+, 0.2 mM Mn^2+, read-out: IC50 (5 mM Mg^2+, 0.2 mM Mn^2+)): 10800 ± 2400 nM
IC50 (cGAS; 5 mM Mg^2+, read-out: IC50 (5 mM Mg^2+)): 1260 ± 570 nM
IC50 (cGAS; cGAS (30 nM), with Mn^2+, read-out: Inhibition cGAS + Mn^2+): 1000 to 10000 nM
IC50 (cGAS; cGAS (30 nM), read-out: Inhibition cGAS): 500 to 1000 nM
MOA (cGAS; competition with ATP): ATP Competitive
IC50 (Mouse cGAS): > 150000 nM
SMILES: Cc1nc(N2CCC[C@H]2C(=O)O)c2oc3ccccc3c2n1 [Compound 15, (2-methylbenzofuro[3,2-d]pyrimidin-4-yl)-L-proline]
inhibition of IRF3 (Luc)-driven transcription ([3]; THP-1 Dual cells): 50-75%
inhibition in cGAMP-stimulated cells with cGAS present ([3]; cGAMP-stimulated THP-1 Dual cells): still caused inhibition, though to a lesser degree
cGAS-dependent cellular activity ([3]; human monocyte cell line THP-1): cGAS-dependent inhibition of type I IFN
